According to US11813250B2, “Topical formulations containing mTOR inhibitors” (Shanghai Aucta Pharmaceuticals Co., Ltd., priority 2020, dated 2023):
Values after ≈ are worked out from the molar mass of the structure shown. Where two headings read alike, the source gives them in different places. Blank lines part the entries; values can stand above or below the compound they belong to.

Experiments:
[1] = Everolimus isomer C stability study in various solvents at 50° C.; format: physicochemical
Experimental: The formulation of this example was prepared in substantially the same manner as the composition of Example 1.
Experiments were performed to study the stability of everolimus in Transcutol P, NMP, DMSO and propylene carbonate under 40° C. at concentration of 20 mg/ml and everolimus in Transcutol P, NMP, DMSO, ethanol, Labrasol and propylene carbonate under 50° C. at concentration of 80 mg/ml. […] DMSO, NMP and propylene carbonate stabilized sirolimus and everolimus and could be used as dissolving agents together or separately.
Everolimus concentrations are at 80 mg/ml in the solvent and co-solvent systems. The said solution was stored at 50° C. oven and samples were evaluated at time 0, 1 h, 2 h and 4 h.

[2] = Solubility in topical solvents; format: physicochemical; conditions: organic solvent or mixture
Experimental: This example evaluated sirolimus and everolimus solubility and stability in various FDA approved topical solvents and co-solvent systems such as diethylene glycol monoethyl ether (Transcutol® P as manufactured by Gattefosse), N-Methyl-2-pyrrolidone (NMP), dimethyl sulfoxide (DMSO), ethanol, Caprylocaproyl polyoxyl-8 glycerides (Labrasol® as manufactured by Gattefosse) and propylene carbonate combined or alone.
The melting point of DMSO is 19° C. (66° F.; 292 K), thus it will freeze under refrigerated condition.

[3] = cited from earlier work
[4] = Seco-Rapamycin in various solvents under 40° C. for 24 hr; format: physicochemical; conditions: for percentage of Seco-Rapamycin in the overall amount of sirolimus: 40° C.
Experimental: (§1) Sirolimus concentrations are at 20 mg/ml in the solvent and co-solvent systems. The solution was stored at 40° C. oven and samples were evaluated at time 0, 1, 4 and 24 hours with HPLC analysis.
Seco-Rapamycin is a major decomposition product of sirolimus, the open ring conformation of Rapamycin (sirolimus), is also quantitated in the solvent systems. […] The initial concentrations of Seco-Rapamycin were undetectable in the tested samples. Less than 0.5% of sirolimus converted or degraded to Seco-Rapamycin in Propylene Carbonate, DMSO and NMP.

[5] = Sirolimus isomer C stability in various solvents under 40° C. for 24 hr (HPLC); format: physicochemical
Experimental: as §1

[6] = DMSO, room temperature, read-out: solubility in DMSO
[7] = N-Methyl-2-pyrrolidone (NMP), both room temperature and refrigerated condition, read-out: solubility in NMP
[8] = Transcutol P (diethylene glycol monoethyl ether), both room temperature and refrigerated condition, read-out: solubility in Transcutol P
[9] = propylene carbonate, both room temperature and refrigerated condition, read-out: solubility in propylene carbonate

Isomer C level (%) ([1]; everolimus 80 mg/ml in DMSO, 0 h): 1.63%
Isomer C level (%) ([1]; everolimus 80 mg/ml in DMSO, 1 h): 1.67%
Isomer C level (%) ([1]; everolimus 80 mg/ml in DMSO, 2 h): 1.73%
Isomer C level (%) ([1]; everolimus 80 mg/ml in DMSO, 4 h): 1.86%
Isomer C level (%) ([1]; everolimus 80 mg/ml in Ethanol, 0 h): 1.85%
Isomer C level (%) ([1]; everolimus 80 mg/ml in Ethanol, 1 h): 2.66%
Isomer C level (%) ([1]; everolimus 80 mg/ml in Ethanol, 2 h): 3.81%
Isomer C level (%) ([1]; everolimus 80 mg/ml in Ethanol, 4 h): 5.40%
Isomer C level (%) ([1]; everolimus 80 mg/ml in NMP, 0 h): 1.62%
Isomer C level (%) ([1]; everolimus 80 mg/ml in NMP, 1 h): 1.76%
Isomer C level (%) ([1]; everolimus 80 mg/ml in NMP, 2 h): 1.86%
Isomer C level (%) ([1]; everolimus 80 mg/ml in NMP, 4 h): 1.99%
Isomer C level (%) ([1]; everolimus 80 mg/ml in Propylene Carbonate, 0 h): 1.63%
Isomer C level (%) ([1]; everolimus 80 mg/ml in Propylene Carbonate, 1 h): 1.84%
Isomer C level (%) ([1]; everolimus 80 mg/ml in Propylene Carbonate, 2 h): 2.06%
Isomer C level (%) ([1]; everolimus 80 mg/ml in Propylene Carbonate, 4 h): 2.47%
Isomer C level (%) ([1]; everolimus 80 mg/ml in Transcutol P, 0 h): 1.71%
Isomer C level (%) ([1]; everolimus 80 mg/ml in Transcutol P, 1 h): 3.78%
Isomer C level (%) ([1]; everolimus 80 mg/ml in Transcutol P, 2 h): 5.26%
Isomer C level (%) ([1]; everolimus 80 mg/ml in Transcutol P, 4 h): 6.43%
increase of the assay of everolimus isomer C ([1]; from 0 h to 4 h in DMSO, propylene carbonate and NMP, 80 mg/ml): less than 1.5%
solubility [2, 6]: > 200 mg/mL
solubility [2, 7]: > 100 mg/mL
solubility [2, 8]: > 100 mg/mL
solubility [2, 9]: > 100 mg/mL
SMILES: CO[C@H]1C[C@@H]2CC[C@@H](C)[C@@](O)(O2)C(=O)C(=O)N2CCCC[C@H]2C(=O)O[C@H]([C@H](C)C[C@@H]2CC[C@@H](OCCO)[C@H](OC)C2)CC(=O)[C@H](C)/C=C(\C)[C@@H](O)[C@@H](OC)C(=O)[C@H](C)C[C@H](C)/C=C/C=C/C=C/1C [Everolimus]
water solubility [3]: poorly water-soluble

solubility [2, 6]: > 100 mg/mL
solubility [2, 7]: > 100 mg/mL
solubility [2, 8]: > 80 mg/mL
solubility [2, 9]: ~30 mg/mL (≈ 32.8 mM)
initial concentrations of Seco-Rapamycin ([4]; in the tested samples, time 0): undetectable
percentage of Seco-Rapamycin in the overall amount of sirolimus ([4]; sirolimus in 50% NMP + 50% DMSO, 4 h): 0.09%
percentage of Seco-Rapamycin in the overall amount of sirolimus ([4]; sirolimus in 50% NMP + 50% DMSO, 24 h): 0.13%
percentage of Seco-Rapamycin in the overall amount of sirolimus ([4]; sirolimus in DMSO, 4 h): 0.23%
percentage of Seco-Rapamycin in the overall amount of sirolimus ([4]; sirolimus in DMSO, 24 h): 0.44%
percentage of Seco-Rapamycin in the overall amount of sirolimus ([4]; sirolimus in NMP, 4 h): 0.12%
percentage of Seco-Rapamycin in the overall amount of sirolimus ([4]; sirolimus in NMP, 24 h): 0.26%
percentage of Seco-Rapamycin in the overall amount of sirolimus ([4]; sirolimus in Propylene Carbonate, 24 h): 0.08%
percentage of Seco-Rapamycin in the overall amount of sirolimus ([4]; sirolimus in Transcutol P, 0 h): 0.20%
percentage of Seco-Rapamycin in the overall amount of sirolimus ([4]; sirolimus in Transcutol P, 1 h): 0.23%
percentage of Seco-Rapamycin in the overall amount of sirolimus ([4]; sirolimus in Transcutol P, 4 h): 0.76%
percentage of Seco-Rapamycin in the overall amount of sirolimus ([4]; sirolimus in Transcutol P, 24 h): 1.06%
sirolimus converted to isomer C after time 0 ([5]; in NMP, DMSO and propylene carbonate within 24 hours): less than 1.5%
Isomer C level (%) ([5]; sirolimus 20 mg/ml in 50% NMP + 50% DMSO, 0 h): 1.07%
Isomer C level (%) ([5]; sirolimus 20 mg/ml in 50% NMP + 50% DMSO, 1 h): 1.15%
Isomer C level (%) ([5]; sirolimus 20 mg/ml in 50% NMP + 50% DMSO, 4 h): 1.46%
Isomer C level (%) ([5]; sirolimus 20 mg/ml in 50% NMP + 50% DMSO, 24 h): 1.46%
Isomer C level (%) ([5]; sirolimus 20 mg/ml in DMSO, 0 h): 1.51%
Isomer C level (%) ([5]; sirolimus 20 mg/ml in DMSO, 1 h): 1.23%
Isomer C level (%) ([5]; sirolimus 20 mg/ml in DMSO, 4 h): 1.72%
Isomer C level (%) ([5]; sirolimus 20 mg/ml in DMSO, 24 h): 2.50%
Isomer C level (%) ([5]; sirolimus 20 mg/ml in NMP, 0 h): 1.00%
Isomer C level (%) ([5]; sirolimus 20 mg/ml in NMP, 1 h): 1.02%
Isomer C level (%) ([5]; sirolimus 20 mg/ml in NMP, 4 h): 1.21%
Isomer C level (%) ([5]; sirolimus 20 mg/ml in NMP, 24 h): 1.46%
Isomer C level (%) ([5]; sirolimus 20 mg/ml in Propylene Carbonate, 0 h): 1.12%
Isomer C level (%) ([5]; sirolimus 20 mg/ml in Propylene Carbonate, 1 h): 1.12%
Isomer C level (%) ([5]; sirolimus 20 mg/ml in Propylene Carbonate, 4 h): 1.46%
Isomer C level (%) ([5]; sirolimus 20 mg/ml in Propylene Carbonate, 24 h): 2.77%
Isomer C level (%) ([5]; sirolimus 20 mg/ml in Transcutol P, 0 h): 4.93%
Isomer C level (%) ([5]; sirolimus 20 mg/ml in Transcutol P, 1 h): 7.11%
Isomer C level (%) ([5]; sirolimus 20 mg/ml in Transcutol P, 4 h): 8.14%
Isomer C level (%) ([5]; sirolimus 20 mg/ml in Transcutol P, 24 h): 8.18%
SMILES: CO[C@H]1C[C@@H]2CC[C@@H](C)[C@@](O)(O2)C(=O)C(=O)N2CCCC[C@H]2C(=O)O[C@H]([C@H](C)C[C@@H]2CC[C@@H](O)[C@H](OC)C2)CC(=O)[C@H](C)/C=C(\C)[C@@H](O)[C@@H](OC)C(=O)[C@H](C)C[C@H](C)/C=C/C=C/C=C/1C [Sirolimus]
water solubility [3]: poorly water-soluble
